Laboratory results taken from patent US11767322B2 (BRISTOL-MYERS SQUIBB COMPANY, priority 2020, dated 2023).
Read-outs that look alike come from different tables or passages of the source.

Tests used:
[1] = system: MLKL phosphorylation in HT29-L23 human colorectal adenocarcinoma cells; experiment: MLKL phosphorylation high-content assay; assay type: cell-based
[2] = biological target: T1, His-GST-TVMV-hRIPK1(1-324) (Homo sapiens, UniProt Q13546); experiment: biochemical; assay type: binding; conditions: read-out: RIPK1 IC50
T1 construct: The coding region of human RIPK1(1-324) flanked by NdeI site at 5′ end; made in house; host or cells: Spodoptera frugiperda Sf9 insect cells (baculovirus, Bac-to-Bac)
T1 sequence (Q13546 1-324): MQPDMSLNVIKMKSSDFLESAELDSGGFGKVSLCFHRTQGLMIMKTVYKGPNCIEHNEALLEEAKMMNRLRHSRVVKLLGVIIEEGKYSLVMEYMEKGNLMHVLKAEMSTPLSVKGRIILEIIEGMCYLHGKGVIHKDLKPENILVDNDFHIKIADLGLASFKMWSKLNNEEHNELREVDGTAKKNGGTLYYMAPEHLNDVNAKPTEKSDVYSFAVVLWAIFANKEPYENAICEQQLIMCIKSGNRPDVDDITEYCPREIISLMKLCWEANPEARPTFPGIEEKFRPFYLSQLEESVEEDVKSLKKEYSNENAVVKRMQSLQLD

[3] = Homo sapiens, 6 h, read-out: pMLKL IC50, HT29-L23 cells, necroptosis induced with TNFα, SMAC mimetic and Z-VAD, 6 h, maximal inhibition defined by Nec1s
[4] = HTRF probe displacement, 1 h at rt
[5] = read-out: pMLKL IC50, HT29-L23 cells, necroptosis induced with TNFα, SMAC mimetic and Z-VAD, 6 h, maximal inhibition defined by Nec1s

Structure (SMILES)	IC50 [1, 3]	IC50 [2, 4]	IC50 [1, 5]	IC50 ([1]; Homo sapiens, Table 23, representative compounds from WO2018/148626, read-out: pMLKL IC50)	IC50 ([2]; Table 23, representative compounds from WO2018/148626)
[2H]C([2H])([2H])c1ccc(-c2ccn3nc(N)nc3c2)c(F)c1C(=O)NCC1(C([2H])(O)c2ccc(F)cc2)CC1 (single isomer, unassigned) [Example 309, 3-(2-amino-[1,2,4]triazolo[1,5-a]pyridin-7-yl)-2-fluoro-N-((1-((4-fluorophenyl) (hydroxy)methyl-d)cyclopropyl)methyl)-6-(methyl-d3)benzamide]	11 nM	6.2 nM			
[2H]C([2H])([2H])c1ccc(-c2ccn3nc(N)nc3c2)c(F)c1C(=O)NC[C@H](F)[C@](C)(O)c1ccc(F)cc1 [Example 215, 3-(2-amino-[1,2,4]triazolo[1,5-a]pyridin-7-yl)-2-fluoro-N-((1S,3R)-2-fluoro-3-(4-fluorophenyl)-3-hydroxybutyl)-6-(methyl-d3)benzamide]	6.6 nM	8.7 nM			
COC(c1ccc(F)cc1)C(F)(F)CNC(=O)c1c(C)ccc(-c2ccn3nc(N)nc3c2)c1F (single isomer, unassigned) [Example 234, 3-(2-amino-[1,2,4]triazolo[1,5-a]pyridin-7-yl)-N-(2,2-difluoro-3-(4-fluorophenyl)-3-methoxypropyl)-2-fluoro-6-methylbenzamide]		8.4 nM	3 nM		
Cc1ccc(-c2ccn3nc(N)nc3c2)c(F)c1C(=O)NCC(F)(F)C(O)c1c(F)cc(F)cc1F (single isomer, unassigned) [Example 284, 3-(2-amino-[1,2,4]triazolo[1,5-a]pyridin-7-yl)-N-(2,2-difluoro-3-hydroxy-3-(2,4,6-trifluorophenyl)propyl)-2-fluoro-6-methylbenzamide]		3.5 nM	1.1 nM		
Cc1ccc(-c2ccn3nc(N)nc3c2)c(F)c1C(=O)NCCC(C)(O)c1ccc(C#N)cc1 (stereo not drawn) [Example 141, 3-{2-amino-[1,2,4]triazolo[1,5-a]pyridin-7-yl}-N-[3-(4-cyanophenyl)-3-hydroxybutyl]-2-fluoro-6-methylbenzamide]	38 nM	22 nM			
Nc1nc2cc(-c3ccc(Cl)c(C(=O)NCC(F)(F)C(O)c4cccc(C(F)(F)F)n4)c3F)ccn2n1 (single isomer, unassigned) [Example 255, 3-(2-amino-[1,2,4]triazolo[1,5-a]pyridin-7-yl)-6-chloro-N-(2,2-difluoro-3-hydroxy-3-(6-(trifluoromethyl)pyridin-2-yl)propyl)-2-fluorobenzamide]		17 nM	79 nM		
Nc1nc2cc(-c3ccc(Cl)c(C(=O)NCC(F)(F)C(O)c4ccc(F)cc4F)c3F)ccn2n1 (single isomer, unassigned) [Example 179, 3-(2-amino-[1,2,4]triazolo[1,5-a]pyridin-7-yl)-6-chloro-N-(3-(2,4-difluorophenyl)-2,2-difluoro-3-hydroxypropyl)-2-fluorobenzamide]		0.3 nM	3.7 nM		
Cc1ccc(-c2ccn3nc(N)nc3c2)c(F)c1C(=O)NCC(F)(F)[C@@H](O)c1ccc(F)cc1 (single isomer, unassigned) [Example 30]	0.5 nM	4.5 nM			
Nc1nc2cc(-c3ccc(Cl)c(C(=O)NCC(F)(F)C(O)c4cccc(Cl)c4)c3F)ccn2n1 (stereo not drawn) [Example 192, 3-(2-amino-[1,2,4]triazolo[1,5-a]pyridin-7-yl)-6-chloro-N-(3-(3-chlorophenyl)-2,2-difluoro-3-hydroxypropyl)-2-fluorobenzamide]		3.5 nM	1.2 nM		
Nc1nc2cc(-c3ccc(Cl)c(C(=O)NCC(F)(F)C(O)c4cccc(F)c4)c3F)ccn2n1 (single isomer, unassigned) [Example 168, 3-{2-amino-[1,2,4]triazolo[1,5-a]pyridin-7-yl}-6-chloro-N-[2,2-difluoro-3-(3-fluorophenyl)-3-hydroxypropyl]-2-fluorobenzamide]		0.3 nM	1.1 nM		
Cc1ncc(-c2ccn3nc(N)nc3c2)cc1C(=O)NCC(C)(O)Cc1ccc(F)cc1 (stereo not drawn) [Compound 421 from WO2018/148626, reference compound]				315 nM	110 nM
Cc1ccc(-c2ccn3nc(N)nc3c2)c(F)c1C(=O)NCC(F)(F)Cc1ccc(F)cc1 [Example 208, 3-(2-amino-[1,2,4]triazolo[1,5-a]pyridin-7-yl)-N-(2,2-difluoro-3-(4-fluorophenyl)propyl)-2-fluoro-6-methylbenzamide]	0.2 nM	2.6 nM			
[2H]C([2H])(CC([2H])(O)c1ccc(Cl)cc1)NC(=O)c1c(Cl)ccc(-c2ccn3nc(N)nc3c2)c1F (single isomer, unassigned) [Example 76, 3-(2-amino-[1,2,4]triazolo[1,5-a]pyridin-7-yl)-6-chloro-N-(3-(4-chlorophenyl)-3-hydroxypropyl-1,1,3-d3)-2-fluorobenzamide]		1.5 nM	3.3 nM		
Nc1nc2cc(-c3ccc(Cl)c(C(=O)NCC(F)(F)C(O)c4cccc(Cl)n4)c3F)ccn2n1 (single isomer, unassigned) [Example 263, 3-(2-amino-[1,2,4]triazolo[1,5-a]pyridin-7-yl)-6-chloro-N-(3-(6-chloropyridin-2-yl)-2,2-difluoro-3-hydroxypropyl)-2-fluorobenzamide]		21 nM	48 nM		
Nc1nc2cc(-c3ccc(Cl)c(C(=O)NCC(F)(F)C(O)c4cccc(Cl)c4F)c3F)ccn2n1 (single isomer, unassigned) [Example 170, 3-(2-amino-[1,2,4]triazolo[1,5-a]pyridin-7-yl)-6-chloro-N-(3-(3-chloro-2-fluorophenyl)-2,2-difluoro-3-hydroxypropyl)-2-fluorobenzamide]		0.1 nM	1.4 nM		
Cc1cc(F)c(-c2ccn3nc(N)nc3c2)cc1C(=O)NCCC(O)c1ccc(F)cc1 (stereo not drawn) [Example 8, 5-(2-amino-[1,2,4]triazolo[1,5-a]pyridin-7-yl)-4-fluoro-N-(3-(4-fluorophenyl)-3-hydroxypropyl)-2-methylbenzamide]	2.3 nM	5.1 nM			
Nc1nc2cc(-c3ccc(Cl)c(C(=O)NCC(F)(F)C(O)c4ccc(Cl)cc4F)c3F)ccn2n1 (single isomer, unassigned) [Example 162, 3-(2-amino-[1,2,4]triazolo[1,5-a]pyridin-7-yl)-6-chloro-N-(3-(4-chloro-2-fluorophenyl)-2,2-difluoro-3-hydroxypropyl)-2-fluorobenzamide]		1.6 nM	3.1 nM		
Nc1nc2cc(-c3ccc(Cl)c(C(=O)NCC(F)(F)C(O)c4cccc(Cl)n4)c3F)ccn2n1 (single isomer, unassigned) [Example 262, 3-(2-amino-[1,2,4]triazolo[1,5-a]pyridin-7-yl)-6-chloro-N-(3-(6-chloropyridin-2-yl)-2,2-difluoro-3-hydroxypropyl)-2-fluorobenzamide]	45 nM	14 nM			
Cc1ccc(-c2ccn3nc(N)nc3c2)c(F)c1C(=O)NCC(C)(F)C(O)c1ccc(F)cc1 (single isomer, unassigned) [Example 203, 3-(2-amino-[1,2,4]triazolo[1,5-a]pyridin-7-yl)-2-fluoro-N-(2-fluoro-3-(4-fluorophenyl)-3-hydroxy-2-methylpropyl)-6-methylbenzamide]		5.6 nM	2.7 nM		
Nc1nc2cc(-c3ccc(Cl)c(C(=O)NCC(F)(F)C(O)c4cccc(Cl)c4F)c3F)ccn2n1 (single isomer, unassigned) [Example 171, 3-(2-amino-[1,2,4]triazolo[1,5-a]pyridin-7-yl)-6-chloro-N-(3-(3-chloro-2-fluorophenyl)-2,2-difluoro-3-hydroxypropyl)-2-fluorobenzamide]		1.6 nM	10 nM		
Nc1nc2cc(-c3ccc(Cl)c(C(=O)NCC(F)(F)C(O)c4ccc(Cl)cc4F)c3F)ccn2n1 (single isomer, unassigned) [Example 163, 3-(2-amino-[1,2,4]triazolo[1,5-a]pyridin-7-yl)-6-chloro-N-(3-(4-chloro-2-fluorophenyl)-2,2-difluoro-3-hydroxypropyl)-2-fluorobenzamide]		0.3 nM	1.3 nM		
Cc1cccc(C(O)C(F)(F)CNC(=O)c2c(Cl)ccc(-c3ccn4nc(N)nc4c3)c2F)c1 (stereo not drawn) [Example 174, 3-(2-amino-[1,2,4]triazolo[1,5-a]pyridin-7-yl)-6-chloro-N-(2,2-difluoro-3-hydroxy-3-(m-tolyl)propyl)-2-fluorobenzamide]		2.8 nM	1.4 nM		
Cc1ccc(-c2ccn3nc(N)nc3c2)c(F)c1C(=O)NCC(F)(F)C(O)c1ccnc(C(F)(F)F)c1 (single isomer, unassigned) [Example 260, 3-(2-amino-[1,2,4]triazolo[1,5-a]pyridin-7-yl)-N-(2,2-difluoro-3-hydroxy-3-(2-(trifluoromethyl)pyridin-4-yl)propyl)-2-fluoro-6-methylbenzamide]		8.4 nM	3.2 nM		
Cc1ccc(-c2ccn3nc(N)nc3c2)c(F)c1C(=O)NCCC(O)C1CCCCC1 (stereo not drawn) [Example 40, 3-(2-amino-[1,2,4]triazolo[1,5-a]pyridin-7-yl)-N-(3-cyclohexyl-3-hydroxypropyl)-2-fluoro-6-methylbenzamide]	1.5 nM	3.8 nM			
